A word on the IC50: it is the midpoint of a concentration-inhibition curve. One may read the CC50 as the concentration giving 50% cytotoxicity. A word on the AC50: it is the midpoint of the concentration-response curve, whichever way the signal moves. As usually defined, the EC50 is the concentration needed to bring the measured effect to its halfway point.

The values below come from ChEMBL document CHEMBL1201862, “PubChem BioAssay data set” (2004).

The source made the active and inactive calls. Where only a bound is given, the exact number is not on record here.

Assay [1] in a line: cells. It is filed as functional.
A short description of assay [2]: Vero E6 cell cytotoxicity, dose response, cytotoxicity control for non-replicating M. tuberculosis project, secondary assay (AID 492998). The class given is functional, VeroE6. The note with it: Vero C1008.
In assay [3] the target is Heat shock protein HSP 90-alpha (Homo sapiens, UniProt P07900). It is filed as functional, organism-based.
Assay [4] is described as follows: Counterscreen for AddAB inhibitors: absorbance-based bacterial cell-based high throughput dose response assay for inhibitors of bacterial viability. [Related pubchem assays (depositor defined):AID435030, AID449728, AID449731, AID488942, AID488955, AID488956]. It is filed as functional. (In general: Counterscreens check selectivity or assay interference.)
Assay [5] can be described thus: HepG2 cell cytotoxicity, dose response, cytotoxicity control for non-replicating M. tuberculosis project (AID 489018). It is filed as functional. As to conditions: Mycobacterium tuberculosis.
The target in assay [6] is Exodeoxyribonuclease V (Escherichia coli (strain K12), UniProt P04993+P07648+P08394). The assay can be described thus: RecBCD inhibition via phage-restricted bacterial growth – absorbance, V66 E. coli, mutant T4 phage, counter-screen for AddAB inhibitor project, dose response (AID 492957). The class given is functional, cell-based, Escherichia coli str. K-12 substr. MG1655.

Assay [7] can be described thus: Luminescence Cell-Based Dose Retest to Confirm Inhibitors of Cancer Stem Cells. [Related pubchem assays (depositor defined):AID2717, AID2721]. The class given is functional. As to conditions: Homo sapiens.
A short description of assay [8]: THP-1 cell cytotoxicity, dose response, cytotoxicity control for non-replicating M. tuberculosis project (AID 489025). The class given is functional.
In assay [9] the target is T1, Tyrosine-protein phosphatase non-receptor type 7 (Homo sapiens, UniProt P35236).
T1 sequence (P35236 whole entry): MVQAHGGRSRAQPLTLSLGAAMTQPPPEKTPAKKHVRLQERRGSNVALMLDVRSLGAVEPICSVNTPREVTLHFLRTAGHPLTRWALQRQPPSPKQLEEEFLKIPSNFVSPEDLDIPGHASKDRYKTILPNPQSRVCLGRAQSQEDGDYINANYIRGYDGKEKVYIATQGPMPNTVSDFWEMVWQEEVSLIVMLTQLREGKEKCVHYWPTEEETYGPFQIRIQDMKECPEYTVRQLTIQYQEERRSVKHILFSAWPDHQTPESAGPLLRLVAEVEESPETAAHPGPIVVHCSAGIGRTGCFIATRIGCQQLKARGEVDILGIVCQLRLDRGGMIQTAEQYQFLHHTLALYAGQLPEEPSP
The assay can be described thus: inhibition of hematopoietic tyrosine phosphatase HePTP – biochemical, set 2, SAR follow-up (AID 449736). It is filed as functional.

The target of assay [10] is T2, Hexokinase HKDC1 (Homo sapiens, UniProt Q2TB90).
T2 sequence (Q2TB90 whole entry): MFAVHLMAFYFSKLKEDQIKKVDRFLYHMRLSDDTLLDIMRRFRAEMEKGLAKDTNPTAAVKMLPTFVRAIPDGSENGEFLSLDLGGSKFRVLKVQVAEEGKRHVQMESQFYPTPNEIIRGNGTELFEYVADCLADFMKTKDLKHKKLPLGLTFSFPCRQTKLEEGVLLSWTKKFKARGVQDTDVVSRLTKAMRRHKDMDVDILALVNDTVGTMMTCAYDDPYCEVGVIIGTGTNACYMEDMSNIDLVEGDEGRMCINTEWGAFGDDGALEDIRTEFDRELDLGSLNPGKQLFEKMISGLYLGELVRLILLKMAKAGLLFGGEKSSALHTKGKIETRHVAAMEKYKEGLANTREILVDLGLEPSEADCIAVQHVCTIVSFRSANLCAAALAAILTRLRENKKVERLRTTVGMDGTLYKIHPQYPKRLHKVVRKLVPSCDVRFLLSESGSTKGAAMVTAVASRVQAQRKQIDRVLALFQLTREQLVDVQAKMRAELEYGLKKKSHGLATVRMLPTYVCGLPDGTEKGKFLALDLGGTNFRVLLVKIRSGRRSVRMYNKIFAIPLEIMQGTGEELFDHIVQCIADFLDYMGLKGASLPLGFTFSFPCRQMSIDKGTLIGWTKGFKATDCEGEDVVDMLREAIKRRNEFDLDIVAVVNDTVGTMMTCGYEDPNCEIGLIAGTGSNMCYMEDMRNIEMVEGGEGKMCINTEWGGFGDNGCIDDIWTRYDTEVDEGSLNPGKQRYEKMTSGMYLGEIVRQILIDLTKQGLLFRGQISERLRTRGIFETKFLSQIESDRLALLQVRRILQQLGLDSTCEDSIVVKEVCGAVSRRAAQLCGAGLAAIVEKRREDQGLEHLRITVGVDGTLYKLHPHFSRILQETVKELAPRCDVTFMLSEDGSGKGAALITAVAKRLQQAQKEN
The assay can be described thus: activation of HKDC1 glucose phosphorylation – biochemical, W721R variant, dose response (AID 504730). The class given is functional.

In assay [11] the target is T3, Rac GTPase-activating protein 1 (Homo sapiens, UniProt Q9H0H5).
T3 sequence (Q9H0H5 whole entry): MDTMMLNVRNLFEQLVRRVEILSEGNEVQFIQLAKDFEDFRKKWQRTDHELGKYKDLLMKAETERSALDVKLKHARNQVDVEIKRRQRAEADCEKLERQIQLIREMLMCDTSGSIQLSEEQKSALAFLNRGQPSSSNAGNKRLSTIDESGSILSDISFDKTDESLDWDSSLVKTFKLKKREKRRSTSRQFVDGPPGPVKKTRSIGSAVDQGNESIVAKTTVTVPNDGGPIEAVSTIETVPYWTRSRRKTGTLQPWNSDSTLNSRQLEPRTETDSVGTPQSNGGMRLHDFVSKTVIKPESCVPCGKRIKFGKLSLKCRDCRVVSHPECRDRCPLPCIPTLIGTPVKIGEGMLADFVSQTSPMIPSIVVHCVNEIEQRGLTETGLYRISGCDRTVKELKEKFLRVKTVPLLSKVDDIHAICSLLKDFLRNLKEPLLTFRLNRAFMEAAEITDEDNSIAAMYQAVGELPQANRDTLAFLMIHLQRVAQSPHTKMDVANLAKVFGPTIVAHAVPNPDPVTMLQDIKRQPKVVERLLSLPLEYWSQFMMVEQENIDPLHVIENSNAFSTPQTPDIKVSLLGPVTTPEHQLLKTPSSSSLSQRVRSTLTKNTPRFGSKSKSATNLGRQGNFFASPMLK
The assay can be described thus: blockers of MgcRacGAP-driven Rac1 GTP hydrolysis – biochemical, ADP Hunter fluorescence, primary and confirmatory, confirmation (AID 624330). The class given is functional.

Assay [12] in a line: viability loss in HeLa cells – cytotoxicity control for MgcRacGAP inhibitor project, dose response (AID 624300). It is filed as functional.
Assay [13] in a line: rescue of ΔF508 CFTR function, airway epithelium – human bronchial epithelial cells, plate reader, cherry-pick, two tests, dose response (AID 743267). It is filed as functional, cell-based.
In assay [14] the target is T4, DNA repair protein RAD52 homolog (Homo sapiens, UniProt P43351).
T4 sequence (P43351 whole entry): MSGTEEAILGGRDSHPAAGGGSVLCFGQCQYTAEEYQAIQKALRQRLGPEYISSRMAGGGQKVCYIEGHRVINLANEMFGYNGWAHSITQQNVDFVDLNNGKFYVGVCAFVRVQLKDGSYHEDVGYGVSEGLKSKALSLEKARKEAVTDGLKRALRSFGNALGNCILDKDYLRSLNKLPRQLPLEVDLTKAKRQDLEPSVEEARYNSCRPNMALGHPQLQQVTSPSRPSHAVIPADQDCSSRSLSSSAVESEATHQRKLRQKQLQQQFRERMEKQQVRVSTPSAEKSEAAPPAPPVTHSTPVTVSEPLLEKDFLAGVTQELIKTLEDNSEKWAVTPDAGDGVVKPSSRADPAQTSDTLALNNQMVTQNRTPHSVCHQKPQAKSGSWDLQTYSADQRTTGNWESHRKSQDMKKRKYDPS
It is filed as functional, biochemical.

Chain of Exodeoxyribonuclease V (P04993 whole entry): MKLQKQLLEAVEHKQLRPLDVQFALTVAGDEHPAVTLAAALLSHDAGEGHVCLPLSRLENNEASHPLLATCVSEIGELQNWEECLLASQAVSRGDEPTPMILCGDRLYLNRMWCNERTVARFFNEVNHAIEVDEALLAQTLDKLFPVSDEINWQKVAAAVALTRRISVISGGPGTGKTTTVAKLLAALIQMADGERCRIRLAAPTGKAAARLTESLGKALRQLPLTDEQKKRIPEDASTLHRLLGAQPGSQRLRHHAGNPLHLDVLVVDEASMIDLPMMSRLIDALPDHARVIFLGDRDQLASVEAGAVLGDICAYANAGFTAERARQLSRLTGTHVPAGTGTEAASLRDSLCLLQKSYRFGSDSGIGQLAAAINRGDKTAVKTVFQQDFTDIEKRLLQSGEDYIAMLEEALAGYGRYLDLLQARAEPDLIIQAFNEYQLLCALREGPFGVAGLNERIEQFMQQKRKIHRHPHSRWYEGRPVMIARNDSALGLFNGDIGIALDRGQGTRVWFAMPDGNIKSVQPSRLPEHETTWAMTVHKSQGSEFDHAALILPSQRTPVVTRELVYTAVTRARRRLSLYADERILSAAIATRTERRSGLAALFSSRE
Chain of Exodeoxyribonuclease V (P07648 whole entry): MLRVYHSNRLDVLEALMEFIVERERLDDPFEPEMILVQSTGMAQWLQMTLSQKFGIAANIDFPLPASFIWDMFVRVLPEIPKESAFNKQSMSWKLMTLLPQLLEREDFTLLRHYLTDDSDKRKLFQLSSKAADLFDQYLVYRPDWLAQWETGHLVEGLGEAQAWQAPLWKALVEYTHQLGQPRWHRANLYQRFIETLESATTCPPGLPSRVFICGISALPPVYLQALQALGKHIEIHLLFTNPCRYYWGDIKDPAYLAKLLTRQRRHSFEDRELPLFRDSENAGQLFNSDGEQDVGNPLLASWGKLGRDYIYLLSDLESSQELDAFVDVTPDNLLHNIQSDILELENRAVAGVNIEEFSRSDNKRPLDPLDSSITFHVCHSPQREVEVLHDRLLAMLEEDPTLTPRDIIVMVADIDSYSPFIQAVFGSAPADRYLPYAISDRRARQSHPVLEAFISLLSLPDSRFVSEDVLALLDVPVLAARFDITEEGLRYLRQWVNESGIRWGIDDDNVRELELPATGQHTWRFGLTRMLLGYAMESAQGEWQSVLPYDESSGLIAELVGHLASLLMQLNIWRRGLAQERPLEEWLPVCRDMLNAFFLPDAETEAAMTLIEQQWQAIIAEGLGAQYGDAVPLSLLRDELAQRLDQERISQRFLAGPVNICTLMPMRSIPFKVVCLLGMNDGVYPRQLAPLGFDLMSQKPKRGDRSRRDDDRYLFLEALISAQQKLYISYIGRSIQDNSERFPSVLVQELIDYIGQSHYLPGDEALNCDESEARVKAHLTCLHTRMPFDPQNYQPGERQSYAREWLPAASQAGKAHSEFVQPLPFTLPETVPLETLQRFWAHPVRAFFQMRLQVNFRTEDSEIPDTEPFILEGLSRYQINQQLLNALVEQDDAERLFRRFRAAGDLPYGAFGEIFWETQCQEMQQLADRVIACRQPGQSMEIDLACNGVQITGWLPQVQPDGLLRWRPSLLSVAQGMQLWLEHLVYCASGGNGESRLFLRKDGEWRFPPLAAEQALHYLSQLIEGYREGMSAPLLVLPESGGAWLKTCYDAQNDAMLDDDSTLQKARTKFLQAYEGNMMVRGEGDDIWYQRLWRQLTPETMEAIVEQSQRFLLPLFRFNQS
Chain of Exodeoxyribonuclease V (P08394 whole entry): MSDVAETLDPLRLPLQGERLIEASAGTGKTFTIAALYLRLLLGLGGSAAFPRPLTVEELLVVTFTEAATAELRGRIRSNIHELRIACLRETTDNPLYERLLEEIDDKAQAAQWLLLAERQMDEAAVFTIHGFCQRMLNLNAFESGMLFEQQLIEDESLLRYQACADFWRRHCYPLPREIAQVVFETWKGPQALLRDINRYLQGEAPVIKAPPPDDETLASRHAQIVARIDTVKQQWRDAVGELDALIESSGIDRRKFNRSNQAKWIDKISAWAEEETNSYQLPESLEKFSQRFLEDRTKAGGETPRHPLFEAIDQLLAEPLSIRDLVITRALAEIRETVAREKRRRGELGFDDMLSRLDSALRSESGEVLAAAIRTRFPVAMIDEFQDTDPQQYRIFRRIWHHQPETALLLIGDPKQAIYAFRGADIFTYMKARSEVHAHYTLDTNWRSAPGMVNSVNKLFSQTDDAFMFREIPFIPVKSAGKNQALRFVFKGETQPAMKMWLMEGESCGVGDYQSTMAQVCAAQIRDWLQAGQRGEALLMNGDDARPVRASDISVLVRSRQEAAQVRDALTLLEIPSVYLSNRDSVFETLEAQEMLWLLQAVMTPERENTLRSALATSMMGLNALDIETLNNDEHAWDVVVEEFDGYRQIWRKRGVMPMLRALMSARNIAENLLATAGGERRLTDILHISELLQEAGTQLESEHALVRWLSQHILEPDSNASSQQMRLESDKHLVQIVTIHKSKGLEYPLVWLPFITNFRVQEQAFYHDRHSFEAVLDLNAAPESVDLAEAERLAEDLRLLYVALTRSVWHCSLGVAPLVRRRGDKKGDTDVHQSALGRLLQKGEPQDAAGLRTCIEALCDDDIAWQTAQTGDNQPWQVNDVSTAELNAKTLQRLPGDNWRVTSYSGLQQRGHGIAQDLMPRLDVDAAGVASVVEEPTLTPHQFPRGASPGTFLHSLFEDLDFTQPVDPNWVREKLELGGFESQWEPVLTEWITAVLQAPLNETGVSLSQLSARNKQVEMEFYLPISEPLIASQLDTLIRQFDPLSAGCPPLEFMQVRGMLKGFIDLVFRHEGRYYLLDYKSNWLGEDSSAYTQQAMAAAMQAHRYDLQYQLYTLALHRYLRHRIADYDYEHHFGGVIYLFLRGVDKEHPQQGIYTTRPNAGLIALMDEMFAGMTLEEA

As to `O=C(Nc1nc(-c2cccs2)cs1)c1ccc([N+](=O)[O-])o1`, the IC50 in [1] was 0.61 µM (active); in assay [4] it was > 118 µM (inactive); in [6], > 118 µM (inactive). Further, the CC50 is > 20 µM (active) in [2], 9.45 µM (active) in [5] and 9.67 µM (active) in [8]. The AC50 in [3] is 2.32 µM (active); in assay [7] it was 1.52 µM (active).

As to `COc1ccc(Cl)cc1-n1c(N)c(C(=O)N2CCOCC2)sc1=S`, in assay [9], the IC50 was > 100 µM (inactive).

Take `Cc1ccc2c(C)c3ccc4ccccc4c3c[n+]2c1.[O-][Cl+3]([O-])([O-])[O-]`: the EC50 in assay [10] is 14.2 µM (active). Besides, in [11], the IC50 was 48 µM (active). The CC50 in [12] was 78.8 µM (active). The results for the AC50 in [13] and in assay [14] were 1.06 µM (active) and 1.34 µM (active), respectively.
